IC50 data for one molecule are collected here from BindingDB's records for patent US11352330 (Hoffmann-La Roche, 2022).

The target in this test is Autotaxin (Homo sapiens, UniProt Q13822). Nature of the test: Human ATX Enzyme Inhibition Assay. As to the method:
Assay working solutions were made as follows:Assay buffer (50 mM Tris-HCl, 140 mM NaCl, 5 mM KCl, 1 mM CaCl2, 1 mM MgCl2, 0.01% Triton-X-100, pH 8.0;ATX solution: ATX (human His-tagged) stock solution (1.08 mg/mL in 20 mM bicine, pH 8.5, 0.15 M NaCl, 10% glycerol, 0.3% CHAPS, 0.02% NaN3), diluted to 1.4-2.5× final concentration in assay buffer;MR121 substrate solution: MR121 substrate stock solution (800 μM MR121 substrate in DMSO), diluted to 2-5× final concentration in assay buffer.Test compounds (10 mM stock in DMSO, 8 μL) were obtained in 384 well sample plates (Corning Costar #3655) and diluted with 8 μL DMSO. Row-wise serial dilutions were made by transferring 8 μL cpd solution to the next row up to row O. The compound and control solutions were mixed five times and 2 μL were transferred to 384 well assay plates (Corning Costar #3702). Then, 15 μL of 41.7 nM ATX solution was added (30 nM final concentration), mixed five times and then incubated for 15 minutes at 30° C. 10 μL of MR121 substrate solution was added (1 μM final concentration), mixed 30 times and then incubated for 15 minutes at 30° C.

Take `COc1ccccc1-c1cc(Cl)c(C)cc1OCc1n[nH]c(=O)n1C` [US11352330, Example B56]: it took 15 nM to reach half-maximal inhibition (IC50).
